Assays:
[1] = biological target: T1, human SCD1 (Homo sapiens, UniProt O00767); assay: Growth inhibition of yeast strain expressing human SCD1 as sole desaturase (OLE1 deleted), OD600 readout; assay type: cell-based; conditions: yeast strain expressing human SCD1 as sole desaturase; growth (OD600) after 40 h at 30° C.; read-out: SCD1 IC50
T1 construct: expressed in transfected cells; host or cells: yeast strain with OLE1 deleted, plasmid-borne human SCD1 (selected in SD-Ura)
T1 sequence (O00767 1-359): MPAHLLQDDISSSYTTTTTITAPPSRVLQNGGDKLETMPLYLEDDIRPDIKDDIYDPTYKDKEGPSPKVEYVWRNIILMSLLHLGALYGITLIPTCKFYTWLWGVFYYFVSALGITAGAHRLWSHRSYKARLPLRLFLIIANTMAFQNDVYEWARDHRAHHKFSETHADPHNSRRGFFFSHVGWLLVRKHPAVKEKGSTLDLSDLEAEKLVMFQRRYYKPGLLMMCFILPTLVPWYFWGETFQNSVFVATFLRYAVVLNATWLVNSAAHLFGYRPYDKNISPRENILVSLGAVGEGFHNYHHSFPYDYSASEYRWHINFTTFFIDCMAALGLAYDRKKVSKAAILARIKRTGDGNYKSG

[2] = biological target: T2, human SCD5 (Homo sapiens, UniProt Q86SK9); assay: Growth inhibition of yeast strain expressing human SCD5 as sole desaturase (OLE1 deleted), OD600 readout; assay type: cell-based; conditions: yeast strain expressing human SCD5 as sole desaturase; growth (OD600) after 40 h at 30° C.; read-out: SCD5 IC50
T2 construct: expressed in transfected cells; host or cells: yeast strain with OLE1 deleted, plasmid-borne human SCD5 (selected in SD-Ura)
T2 sequence (Q86SK9 1-330): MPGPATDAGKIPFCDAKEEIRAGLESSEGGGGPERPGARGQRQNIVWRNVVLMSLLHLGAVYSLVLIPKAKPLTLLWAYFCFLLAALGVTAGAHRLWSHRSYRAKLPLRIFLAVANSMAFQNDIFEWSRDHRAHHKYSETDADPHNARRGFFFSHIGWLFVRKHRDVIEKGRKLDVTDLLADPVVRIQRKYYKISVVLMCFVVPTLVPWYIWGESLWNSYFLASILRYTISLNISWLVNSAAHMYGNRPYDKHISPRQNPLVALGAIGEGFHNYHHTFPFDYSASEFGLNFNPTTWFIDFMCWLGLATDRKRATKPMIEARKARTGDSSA

Compound | IC50 [1] | IC50 [2]
O=C(Nc1ccc(Cc2cccc(F)c2)cn1)c1ccc(=O)n(C2CCC2)n1 [Compound 421] | > 45 µM | > 45 µM
CN1N=C(C(=O)Nc2nc(Cc3ccc4ccccc4n3)cs2)CCC1=O [Compound 422] | > 45 µM | > 45 µM
CS(=O)(=O)c1ccc(C(=O)Nc2ccc(Cc3cccc(F)c3)cn2)cc1 [Compound 423] | > 45 µM | > 45 µM
COC(C)(c1cccc(F)c1)c1cnc(NC(=O)C2=NN(C)C(=O)CC2)s1 (stereo not drawn) [Compound 424] | > 45 µM | > 45 µM
Cn1nc(C(=O)Nc2cncc(Cc3cccc(Cl)c3)c2)ccc1=O [Compound 426] | > 45 µM | > 45 µM
Cn1cc(C(=O)Nc2ccc(OCc3cc(F)cc(C#N)c3)cn2)ccc1=O [Compound 427] | > 45 µM | > 45 µM
COC(=O)c1ccc(C(=O)Nc2ccc(COc3ccc(F)c(Cl)c3)cn2)nc1 [Compound 428] | > 45 µM | > 45 µM
O=C(Nc1ccc(Cc2cccc(Cl)c2)cn1)c1ccn2cnnc2c1 [Compound 429] | > 45 µM | > 45 µM
Cn1nc(C(=O)Nc2nc(C(N)=O)c(Cc3cccc(F)c3)s2)ccc1=O [Compound 430] | > 45 µM | > 45 µM
Cn1cc(C(=O)Nc2nnc(Cc3cc(F)cc(Cl)c3)s2)ccc1=O [Compound 431] | 1.07 µM | > 45 µM
Cn1nc(C(=O)N2CCC(Oc3cccc(Cl)c3)CC2)ccc1=O [Compound 432] | > 45 µM | > 45 µM
CN1N=C(C(=O)Oc2ccc(NCc3cccc(F)c3)nc2)CCC1=O [Compound 433] | > 45 µM | > 45 µM
Cn1nc(NC(=O)N[C@H]2CC[C@H](Cc3cccc(Cl)c3)CC2)ccc1=O [Compound 434] | > 45 µM | > 45 µM
Cc1ccc(Cc2ccc(NC(=O)C3=NN(C)C(=O)CC3)nc2)cn1 [Compound 435] | > 45 µM | > 45 µM
CN1N=C(C(=O)Nc2ccc(Cc3cccc(CO)c3)cn2)CCC1=O [Compound 436] | 6.24 µM | > 45 µM
Cc1cncc(Cc2ccc(NC(=O)C3=NN(C)C(=O)CC3)nc2)c1 [Compound 437] | > 45 µM | > 45 µM
CO[C@H]1C[C@@H](C(=O)Nc2ccc(Cc3cccc(F)c3)cn2)N(C)C1 [Compound 438] | > 45 µM | > 45 µM
CN1N=C(C(=O)Nc2ccc(NCc3cc(F)cc(C#N)c3)nc2)CCC1=O [Compound 439] | > 45 µM | > 45 µM
CN1N=C(C(=O)Nc2ccc(Cc3cccc(C=O)c3)cn2)CCC1=O [Compound 440] | > 45 µM | > 45 µM
Cn1nc(C(=O)Nc2ccc(OCc3cc(F)cc(C#N)c3)cn2)ccc1=O [Compound 441] | > 45 µM | > 45 µM
CN1N=C(C(=O)Nc2ccc(Cc3cncc(F)c3)cn2)CCC1=O [Compound 442] | > 45 µM | > 45 µM

Compound | IC50 [1] | IC50 [2]
CN1N=C(C(=O)Nc2cnc(Cc3cccc(Cl)c3)nc2)CCC1=O [Compound 443] | > 45 µM | > 45 µM
C=CCCc1ccc(NC(=O)C2=NN(C)C(=O)CC2)nc1 [Compound 444] | > 45 µM | > 45 µM
CN1N=C(C(=O)Nc2ccc(Cc3cccc(C(F)(F)F)n3)cn2)CCC1=O [Compound 445] | > 45 µM | > 45 µM
CO[C@H]1C[C@@H](C(=O)Nc2ccc(Cc3cccc(F)c3)cn2)N(C(=O)OC(C)(C)C)C1 [Compound 446] | > 45 µM | > 45 µM
CO[C@@H]1CN[C@H](C(=O)Nc2ccc(Cc3cccc(F)c3)cn2)C1 [Compound 447] | > 45 µM | > 45 µM
Cc1nc(C(=O)Nc2ccc(Cc3cccc(F)c3)cn2)ccc1F [Compound 448] | > 45 µM | > 45 µM
Cc1ccc(Cc2ccc(NC(=O)c3ccc(=O)n(C)c3)nc2)cn1 [Compound 449] | > 45 µM | > 45 µM
Cc1cncc(Cc2ccc(NC(=O)c3ccc(=O)n(C)c3)nc2)c1 [Compound 450] | > 45 µM | > 45 µM
O=C(O)c1ccc(C(=O)Nc2ccc(Cc3cccc(Cl)c3)cn2)nn1 [Compound 451] | 1.4 µM | > 45 µM
Cn1cc(C(=O)Nc2ccc(COc3ccc(F)cc3)cn2)ccc1=O [Compound 452] | > 45 µM | > 45 µM
Cn1cc(C(=O)Nc2ccc(Cc3cncc(F)c3)cn2)ccc1=O [Compound 453] | 0.18 µM | > 45 µM
COC(=O)c1ccc(C(=O)Nc2ccc(Cc3cccc(Cl)c3)cn2)nn1 [Compound 454] | 1.93 µM | > 45 µM
COc1ccc(Cn2c(C(=O)Nc3ccc(Cc4cccc(F)c4)cn3)cc(=O)n2C)cc1 [Compound 455] | > 45 µM | > 45 µM
COc1ccc(Cn2c(C(=O)Nc3ccc(Cc4cccc(Cl)c4)cn3)cc(=O)n2C)cc1 [Compound 456] | > 45 µM | > 45 µM
Cn1cc(-c2ccc(NC(=O)Cc3cccc(F)c3)nc2)ccc1=O [Compound 457] | > 45 µM | > 45 µM
CN1C(=O)OC[C@H]1C(=O)Nc1ccc(Cc2cccc(F)c2)cn1 [Compound 458] | > 45 µM | > 45 µM
Cn1c(C(=O)Nc2ccc(Cc3cccc(F)c3)cn2)cc(=O)n1C [Compound 459] | > 45 µM | > 45 µM
Cn1c(C(=O)Nc2ccc(Cc3cccc(Cl)c3)cn2)cc(=O)n1C [Compound 460] | > 45 µM | > 45 µM
Cn1cc(C(=O)Nc2nnc(Cc3cccc(F)c3)s2)ccc1=O [Compound 461] | > 45 µM | > 45 µM
Cn1cc(C(=O)Nc2nnc(Cc3cccc(Cl)c3)s2)ccc1=O [Compound 462] | > 45 µM | > 45 µM
Cn1cc(C(=O)N2CCC(Oc3cccc(Cl)c3)CC2)ccc1=O [Compound 464] | > 45 µM | > 45 µM

Compound | IC50 [1] | IC50 [2]
Cn1cc(C(=O)N[C@H]2CC[C@@H](Cc3cccc(Cl)c3)CC2)ccc1=O [Compound 465] | > 45 µM | > 45 µM
Cn1cc(C(=O)NC2CCC(Oc3cccc(Cl)c3)CC2)ccc1=O (stereo not drawn) [Compound 466] | > 45 µM | > 45 µM
Cn1cc(-c2ccc(C(=O)NCc3cccc(F)c3)nc2)ccc1=O [Compound 467] | > 45 µM | > 45 µM
CN1N=C(C(=O)Nc2ccc(CC3CC3)cn2)CCC1=O [Compound 468] | > 45 µM | > 45 µM
Cc1ccnc(Cc2ccc(NC(=O)C3=NN(C)C(=O)CC3)nc2)c1 [Compound 469] | > 45 µM | > 45 µM
CN1N=C(C(=O)Nc2ccc(Cc3ccc(C#N)c(F)c3)cn2)CCC1=O [Compound 470] | > 45 µM | > 45 µM
CN1N=C(C(=O)Nc2cc(Cc3cccc(Cl)c3)cnc2N)CCC1=O [Compound 471] | > 45 µM | > 45 µM
CC(O)C1CN(C(=O)Nc2ccc(Cc3cccc(Cl)c3)cn2)C1 (stereo not drawn) [Compound 472] | > 45 µM | > 45 µM
Cn1cc(C(=O)Nc2nnc(Cc3ccc(F)cc3)s2)ccc1=O [Compound 473] | > 45 µM | > 45 µM
Cn1nc(C(=O)Nc2ccc(CC3CCCCC3)cn2)cc1O [Compound 476] | > 45 µM | 7.6 µM
CN1N=C(C(=O)Nc2ccc(C=C3CCCCC3)cn2)CCC1=O [Compound 477] | > 45 µM | 18 µM
N#Cc1ccc(C(=O)Nc2ccc(Cc3cc(F)cc(F)c3)cn2)cn1 [Compound 478] | 2.1 µM | 0.019 µM
COCc1ncc(C(=O)Nc2ccc(Cc3cccc(Cl)c3)cn2)cn1 [Compound 479] | 12 µM | 0.68 µM
CN1CC=C(C(=O)Nc2ccc(Cc3cccc(F)c3)cn2)NC1=O [Compound 480] | 3.5 µM | 0.23 µM
O=C(Nc1ccc(Cc2cccc(F)c2)cn1)c1cncc(CO)c1 [Compound 481] | 0.12 µM | 0.027 µM
N#Cc1ccc(C(=O)Nc2ccc(CNc3cccc(Cl)c3)cn2)cn1 [Compound 482] | 4.8 µM | 0.62 µM
O=C(Nc1ccc(Cc2cccc(Cl)c2)cn1)c1cncc(CO)c1 [Compound 483] | 0.075 µM | 0.017 µM
Cc1ccc(C(=O)Nc2ccc(Cc3cc(F)cc(F)c3)cn2)nn1 [Compound 484] | 0.53 µM | 0.014 µM
Cc1nccc(C(=O)Nc2ccc(Cc3ccc(F)c(F)c3)cn2)n1 [Compound 485] | 0.21 µM | 0.021 µM
COc1nccc(C(=O)Nc2ccc(Cc3ccc(F)c(F)c3)cn2)n1 [Compound 486] | 7.8 µM | 0.11 µM
Cn1cc(NC(=O)c2ccc(COc3cccc(Cl)c3)cn2)ccc1=O [Compound 487] | 4.6 µM | 0.31 µM
